Patent US11633394B2, “Substituted alkynylene compounds as anticancer agents” (Aurigene Oncology Limited, priority 2018, dated 2023)

Assays:
Assay type in all cases: cell-based
NCI-H2122 cells = assay: Anti proliferative activity in NCI-H2122 cells by XTT assay; details: Homo sapiens, NCI-H2122, 192 h, H2122 cell line; for IC50: 8 days (192 hour) incubation; for viability at 30 µM: 8 days
Description: Example 79: Determination of Anti Proliferative Activity in NCI-H2122 Cells by XTT Assay
NCI-H2122 cells (ATCC CRL-5985) were plated at 1000 cells/well in 96 well flat clear bottom plates (Corning, Cat. No 3596) using complete RPMI-1640 media. After 24 hours, compounds of present invention were added to cells from 10 mM stocks made in DMSO (Sigma Cat no. D2650). Each concentration of compound was tested in triplicate with DMSO concentration not exceeding a final percentage of 0.3 in the cells. Complete RPMI-1640 media changed at Day 3 (72 hour) and Day 6 (144 hour) along with compounds of current invention. After 8 days (192 hour) of incubation assay terminated using 50 μl of XTT reagent (Invitrogen, Cat. no X6493). XTT reagent was made by dissolving 1 mg/mi XTT in serum free media with addition of 25 μM Phenazine methosulfate (sigma Cat. no P9625). Absorbance readings were taken in spectrophotometer at 465 nm. The data was analysed using graph pad prism software. Positive control (100% survival)=Cells in complete media with 0.3% DMSO; Negative control/blank (0% survival)=Media alone containing 0.3% DMSO.
(§1) The compounds of the present invention were screened in the above mentioned assay and the results are tabulated below.

OCI-Ly10 cells = assay: Anti proliferative activity in OCI-Ly10 cells (CTG luminescence); details: Homo sapiens, OCI-Ly10, 72 h
Description: Example 80: Determination of Anti Proliferative Activity in OCI-Ly10 Cells
OCI-Ly10 cells (UHN Canada) were plated at 7500 cells/well in 96 well flat bottom plates (Corning, Cat. No CLS3904) using complete Iscove's Modified Dulbecco's Medium (IMDM. After 6 hours, compounds from the present invention were added to the cells from 10 mM stocks made in DMSO (Sigma, Cat. No D2650). Each concentration of compound was tested in triplicates with DMSO concentration not exceeding a final percentage of 0.1 in the cells. After 72 hours of incubation in CO2 incubator, CTG (Promega, Cat. No G7572) was added to the wells and Luminescence readings were taken in the plate reader. Percent inhibition in proliferation was calculated using Microsoft Excel software. Positive control (100% survival)=Cells in complete media with 0.1% DMSO; Negative control/blank (0% survival)=Media alone containing 0.1% DMSO.

NCI-H1792 cells = assay: Anti proliferative activity in NCI-H1792 cells by XTT assay; details: Homo sapiens, NCI-H1792, 72 h, H1792 cell line
Description: Example 78: Determination of Anti Proliferative Activity in NCI-H1792 Cells by XTT Assay
NCI-H1792 cells (ATCC CRL-5895) were plated at 2000 cells/well in 96 well flat clear bottom plates (Corning, Cat. No 3596) using complete RPMI media. After 24 hours, compounds of present invention were added to cells from 20 mM stocks made in DMSO (Sigma Cat no. D2650). Each concentration of compound was tested in triplicate with DMSO concentration not exceeding a final percentage of 0.3 in the cells. After 72 hours of incubation in CO2 incubator, XTT (Invitrogen, Cat. no X6493) was added to the wells. XTT was dissolved in serum free media at 1 mg/ml and absorbance readings were taken in spectrophotometer at 465 nm. The data was analysed using graph pad prism software. Positive control (100% survival)=Cells in complete media with 0.3% DMSO; Negative control/blank (0% survival)=Media alone containing 0.3% DMSO.
as §1

Row | SMILES | IC50 (NCI-H2122 cells) | IC50 (NCI-H1792 cells; 72 hours incubation) | inhibition at 1 µM (OCI-Ly10 cells) | inhibition at 10 µM (OCI-Ly10 cells) | viability at 30 µM (NCI-H2122 cells) | viability at 30 µM (NCI-H1792 cells; at 30 μM, 72 hours)
1 | C=CC(=O)N1CCN(C(=O)NC2(C#Cc3ccc(Cl)c(Cl)c3)CCCC2)CC1 [Example 24] | < 10 µM |  | 35% | 68% |  | 
2 | C=CC(=O)N1CC(N2CCN(C(=O)NC(C)C#Cc3ccc(Cl)c(C4(C)CC4)c3)CC2)C1 (stereo not drawn) [Example 29] | < 10 µM |  | 42% | 90% |  | 
3 | C=CS(=O)(=O)N1CCN(C(=O)NC2(C#Cc3ccc(Cl)c(Cl)c3)CC2)CC1 [Example 51, N-(1-((3,4-dichlorophenyl)ethynyl)cyclopropyl)-4-(vinylsulfonyl) piperazine-1-carboxamide] |  |  | 3% | 52% | 0% | 

Now from value to compound, other results behind:

Row | IC50 (NCI-H2122 cells) | IC50 (NCI-H1792 cells; 72 hours incubation) | SMILES | inhibition at 1 µM (OCI-Ly10 cells) | inhibition at 10 µM (OCI-Ly10 cells) | viability at 30 µM (NCI-H2122 cells) | viability at 30 µM (NCI-H1792 cells; at 30 μM, 72 hours)
4 | < 10 µM |  | C=CC(=O)N1CCN(C(=O)NC(C)C#Cc2ccc(C#N)c(C(F)(F)F)c2)CC1 (stereo not drawn) [Example 63] | 49% | 79% | 18% | 
5 |  | < 10 µM | C=CS(=O)(=O)N[C@H]1CC[C@@H](NC(=O)NC(C)C#Cc2ccc(Cl)c(Cl)c2)CC1 (mixture of isomers) [Example 50, N-((1s, 4s)-4-(3-(4-(3,4-dichlorophenyl)but-3-yn-2-yl)ureido)cyclohexyl) ethenesulfonamide] | 32% | 48% | 1% | 17%
